Results published in patent publication US20140044655A1, “NOVEL ACTIVATOR PEPTIDES FOR SYNTHESIZING EXTRACELLULAR MATRIX PROTEINS, AND COSMETIC COMPOSITIONS INCLUDING SAME” (ISP INVESTMENTS INC., priority 2011, published 2014).
Where no end group is shown, it is not given here.

Experiments:
Assay type in all cases: cell-based
[1] = test system: collagen I; assay: Specific labeling of collagen I in human fibroblast cultures (epifluorescence); details: human dermal fibroblasts; peptide 0.5%, 1% and/or 3% (stock solution 40 mg/kg); 24, 48 and/or 72 hours; vs control
Experimental: (§1) The objective of this study is to determine the influence of the peptides SEQ ID NO: 4 and NO: 5 and the peptide SEQ ID NO: 4 on the expression of the following extracellular matrix proteins: collagen I, collagen III, pro-collagen, fibronectin and hyaluronic acid in human fibroblasts. For this, specific labelings were performed on normal human fibroblast cultures obtained from the dermis.
(§2) Human fibroblasts in culture are treated with the peptide SEQ ID NO: 5 or the peptide SEQ ID NO: 4 at a final concentration of 0.5%, 1% and/or 3% (based on a stock solution at 40 mg/kg), for 24, 48 and/or 72 hours. The cells are then washed, fixed with cold methanol for 4 minutes at 4° C. (for the collagen I, collagen III and hyaluronic acid labelings) or with formaldehyde at 3.7% for 10 minutes at room temperature (for the pro-collagen and fibronectin labelings). The cells are incubated in the presence of a specific rabbit collagen I polyclonal antibody (Rockland, Ref: 600-401-103-0.5), a specific rabbit collagen III polyclonal antibody (Rockland, Ref: 600-401-105-0.5), a specific rat pro-collagen polyclonal antibody (Millipore, Ref: MAB1912), a specific rabbit fibronectin polyclonal antibody (Sigma, Ref: F-3648), then an anti-rabbit secondary antibody coupled with a fluorochrome (Invitrogen, Ref: A21206) or anti-rat coupled with a fluorochrome (Invitrogen, A11006). […]

[2] = test system: collagen III; assay: Specific labeling of collagen III in human fibroblast cultures (epifluorescence); details: human dermal fibroblasts; peptide 0.5%, 1% and/or 3% (stock solution 40 mg/kg); 24, 48 and/or 72 hours; vs control
Experimental: as §1, §2

[3] = test system: pro-collagen; assay: Specific labeling of pro-collagen in human fibroblast cultures (epifluorescence); details: human dermal fibroblasts; peptide 0.5%, 1% and/or 3% (stock solution 40 mg/kg); 24, 48 and/or 72 hours; vs control
Experimental: as §1, §2

[4] = test system: fibronectin; assay: Specific labeling of fibronectin in human fibroblast cultures (epifluorescence); details: human dermal fibroblasts; peptide 0.5%, 1% and/or 3% (stock solution 40 mg/kg); 24, 48 and/or 72 hours; vs control
Experimental: as §1, §2

[5] = test system: hyaluronic acid; assay: Specific labeling of hyaluronic acid in human fibroblast cultures (epifluorescence); details: human dermal fibroblasts; peptide 0.5%, 1% and/or 3% (stock solution 40 mg/kg); 24, 48 and/or 72 hours; vs control
Experimental: as §1, §2

[6] = test system: collagen I; assay: Collagen I immunolabeling in human skin samples cultivated ex vivo; details: topical 0.5%, 1% or 3% (stock solution 40 mg/kg), 24, 48 and/or 72 hours
Experimental: (§3) The objective of this study is to determine the influence of the peptide SEQ ID NO: 5 on the expression of the following extracellular matrix proteins: collagen I, collagen III, pro-collagen, fibronectin and hyaluronic acid in the human skin. For this, specific labelings were performed on human skin samples cultivated ex vivo.
(§4) Human skin samples are placed in culture at the air/liquid interface. The peptide SEQ ID NO: 5 is applied topically on the samples at final concentrations of 0.5%, 1% or 3%, (using a stock solution at 40 mg/kg) then the samples are incubated for 24, 48 and/or 72 hours at 37° C.
(§5) These skin samples are then fixed with formaldehyde then embedded in paraffin or fixed and embedded in OCT then frozen at −20° C. Sections with a thickness of 4 μm are then produced (6 μm for cold sections).
(§6) The labelings of the collagen I and the collagen III, on the samples embedded in paraffin, are performed after unmasking specific sites. The immunolabelings are performed using a specific rabbit collagen I polyclonal antibody (Rockland, Ref: 600-401-103-0.5), a specific rabbit collagen III polyclonal antibody (Rockland, Ref: 600-401-105-0.5), then an anti-rabbit secondary antibody coupled with a fluorochrome (Invitrogen, Ref: A21206). […]

[7] = test system: collagen III; assay: Collagen III immunolabeling in human skin samples cultivated ex vivo; details: topical 0.5%, 1% or 3% (stock solution 40 mg/kg), 24, 48 and/or 72 hours
Experimental: as §3, §4, §5, §6

[8] = test system: pro-collagen; assay: Pro-collagen immunolabeling in human skin samples cultivated ex vivo; details: topical 0.5%, 1% or 3% (stock solution 40 mg/kg), 24, 48 and/or 72 hours
Experimental: as §3, §4, §5
The immunolabeling of the pro-collagen, on the samples embedded in OCT, is performed after fixing for 10 minutes with cold acetone. The immunolabeling is performed using a specific rat pro-collagen polyclonal antibody (Millipore, Ref: MAB 1912) then an anti-rat secondary antibody, coupled with a fluorescent marker (Invitrogen, A11006).
The cells are then examined under the epifluorescence microscope (Nikon Eclipse E600 microscope).

[9] = test system: hyaluronic acid; assay: Hyaluronic acid labeling in human skin samples cultivated ex vivo; details: topical 0.5%, 1% or 3% (stock solution 40 mg/kg), 24, 48 and/or 72 hours
Experimental: as §3, §4, §5, §6

[10] = test system: Collagen I messenger RNAs; assay: Expression of collagen I messenger RNAs by real-time PCR in human fibroblasts; details: 0.5% and 1% (stock solution 40 mg/kg), 24, 48 and 72 hours, comparative Ct method, 18S control
Experimental: The objective of this study is to determine the influence of the peptide SEQ ID NO: 5 on the expression of collagen I messenger RNAs in the human fibroblasts. For this, the expression of collagen I was studied by real-time PCR.
Human fibroblasts in culture are treated with the peptide SEQ ID NO: 5 at final concentrations of 0.5% and 1% (using a stock solution at 40 mg/kg) for 24, 48 and 72 hours. The total RNAs are extracted using an extraction kit (QIAGEN), then reverse transcribed with a specific kit containing RNase inhibitors (Applied Biosystems). A real-time PCR is performed in a thermocycler using a specific Collagen I TaqMan Gene Expression Assay (Applied Biosystem, […]) and a specific 18S TaqMan Gene Expression Assay used as an endogenous control (Applied Biosystem, […]). The relative quantification of the expression of the Collagen I messenger RNAs is performed by the comparative Ct method (the Ct, the threshold cycle, is the intersection between the amplification curve and the threshold line).

[11] = test system: P16; assay: Expression of senescence marker P16 in human fibroblasts (immunolabeling); details: 0.5% and 1% (stock solution 40 mg/kg), 48 hours
Experimental: The objective of this study is to determine the influence of the peptide SEQ ID NO: 5 on the expression of P16, a protein of which the expression in the skin increases with age. P16 is a protein involved in the negative regulation of the cellular cycle, which has been described as a reliable marker of cellular senescence (Brookes S. et al. Experimental Cell Research 298, 2004).
Human fibroblasts in culture are treated with the peptide SEQ ID NO: 5 at final concentrations of 0.5% and 1% (using a stock solution at 40 mg/kg) for 48 hours. The cells are prepared according to the Shandon Cytoblock® Cell preparation system kit (Thermo Scientific, Ref: 7401150).
The cells are then fixed with formaldehyde then embedded in paraffin. Sections of 4 μm are then produced. The labeling of p16 on the cells embedded in paraffin is performed after unmasking the specific sites. The immunolabelings are performed using a specific mouse p16 polyclonal antibody (Santa-Cruz, Ref: sc-81157), then an anti-mouse secondary antibody coupled with a fluorochrome (Invitrogen, Ref: A21202). The cells are then examined under the epifluorescence microscope (Nikon Eclipse E600 microscope).

[12] = test system: senescent fibroblasts (β-galactosidase activity); assay: Reversal of senescence induced by FOXO3a siRNA in human fibroblasts (β-galactosidase, X-Gal staining); details: human fibroblasts treated with FOXO3a siRNA 25 nM; peptide 1% (stock solution 40 mg/kg); 48 hours
From the text: The objective of this study is to determine the influence of the peptide SEQ ID NO: 5 on senescent fibroblasts, of which the senescence has been induced by the extinction of the FOXO3a gene. These cells overexpress beta-galactosidase, in relation to their senescent state.
FOXO3a is a Forkhead transcription factor involved in cell longevity. In the skin, the negative regulation of FOXO3a accelerates the senescence of normal human fibroblasts (Hyun Kyoung K. et al. J. of Gerontol., 2005, vol. 60A n° 1, pages 4-9). This property was used to advantage to induce senescence in human fibroblasts by blocking FOXO3a expression by a specific interfering RNA (siRNA).
Human fibroblasts in culture are rendered senescent by treatment with a specific siRNA of FOXO3a at a final concentration of 25 nM using the Lipofectamine™ RNAiMAX (Invitrogen, Ref: 13778-075) transfection technique. Untreated controls are produced. The fibroblasts are treated in parallel by the peptide SEQ ID NO: 5 at a final concentration of 1% (using a stock solution at 40 mg/kg) for 48 hours.
The cells are rinsed and fixed in a fixation buffer (0.2% glutaraldehyde, 2% formaldehyde). The cells are then incubated at 37° C. without CO2 for 24 hours with an X-Gal solution at 1 mg/mL in 40 mM of citric acid/phosphate (pH 6), 5 mM K3FeCN6, 5 mM K4FeCN6, 150 mM NaCl and 2 mM MgCl2. […]

Substance | expression of collagen I [1] | expression of collagen III [2] | expression of pro-collagen [3] | expression of fibronectin [4] | expression of hyaluronic acid [5] | expression of collagen I in the dermis [6] | expression of collagen III in the dermis [7] | expression of pro-collagen in the dermis [8] | expression of hyaluronic acid in the human dermis ([9]; dermis) | expression of hyaluronic acid in the human epidermis ([9]; epidermis) | expression of Collagen I messenger RNAs [10] | p16 immunolabeling, nuclear fluorescence (expression of the p16 senescence marker) [11] | β-galactosidase activity (number of cells stained blue) [12]
Gly-Pro-Ala-Gly-Pro-NH2 (GPAGP-NH2) [SEQ ID NO: 5] | stimulate the expression | stimulate the expression | stimulate the expression | stimulate the expression | stimulate the expression | stimulates the expression | stimulates the expression | stimulates the expression | stimulates the expression | stimulates the expression | stimulates the expression | less intense nuclear fluorescence | decrease in the β-galactosidase activity
Gly-Pro-Ala-Gly-Pro (GPAGP) [SEQ ID NO: 4] | stimulate the expression | stimulate the expression | stimulate the expression | stimulate the expression | stimulate the expression | – | – | – | – | – | – | – | –
